In ChEMBL document CHEMBL1201862, “PubChem BioAssay data set” (2004):
Calls of active or inactive are those of the source.

What was measured:
[1] = biological target: T1, Rac GTPase-activating protein 1 (Homo sapiens, UniProt Q9H0H5); experiment: blockers of MgcRacGAP-driven Rac1 GTP hydrolysis – biochemical, ADP Hunter fluorescence, primary and confirmatory, confirmation (AID 624330); assay type: functional
T1 sequence (Q9H0H5 whole entry): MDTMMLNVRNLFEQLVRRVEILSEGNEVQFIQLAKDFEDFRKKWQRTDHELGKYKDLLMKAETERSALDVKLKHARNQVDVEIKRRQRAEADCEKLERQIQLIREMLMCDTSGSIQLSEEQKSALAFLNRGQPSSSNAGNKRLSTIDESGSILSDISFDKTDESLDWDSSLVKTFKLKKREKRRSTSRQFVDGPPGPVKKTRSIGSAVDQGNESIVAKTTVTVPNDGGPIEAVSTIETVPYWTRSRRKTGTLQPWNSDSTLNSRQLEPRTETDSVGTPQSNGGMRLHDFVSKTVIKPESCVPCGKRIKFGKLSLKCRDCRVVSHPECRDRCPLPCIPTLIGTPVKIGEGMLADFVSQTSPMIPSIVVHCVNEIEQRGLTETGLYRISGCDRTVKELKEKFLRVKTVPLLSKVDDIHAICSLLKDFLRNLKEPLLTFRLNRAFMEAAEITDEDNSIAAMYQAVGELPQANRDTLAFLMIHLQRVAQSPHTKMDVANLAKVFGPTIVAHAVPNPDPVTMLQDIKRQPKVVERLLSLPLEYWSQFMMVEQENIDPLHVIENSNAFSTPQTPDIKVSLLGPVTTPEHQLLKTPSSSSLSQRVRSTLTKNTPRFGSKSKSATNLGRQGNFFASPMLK

Cytochrome P450 2D6 = Cytochrome P450 2D6 (Homo sapiens, UniProt P10635);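 further: CYP2D6 member of a cytochrome P450 panel assay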
Cytochrome P450 2C19 = Cytochrome P450 2C19 (Homo sapiens, UniProt P33261); experiment: Cytochrome panel assay with activity outcomes. Panel member name: p450-cyp2c19 Compounds with AC50 equal or less than 10 uM are considered active; assay type: functional; details: read-out: AC50
Cytochrome P450 3A4 = Cytochrome P450 3A4 (Homo sapiens, UniProt P08684);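 further: CYP3A4 tested as one member of a cytochrome P450 panel screen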
Cytochrome P450 2C9 = Cytochrome P450 2C9 (Homo sapiens, UniProt P11712)
Cytochrome P450 1A2 = biological target: T2, Cytochrome P450 1A2 (Homo sapiens, UniProt P05177);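 further: PubChem cytochrome P450 panel assay, CYP1A2 panel member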
T2 sequence (P05177 whole entry): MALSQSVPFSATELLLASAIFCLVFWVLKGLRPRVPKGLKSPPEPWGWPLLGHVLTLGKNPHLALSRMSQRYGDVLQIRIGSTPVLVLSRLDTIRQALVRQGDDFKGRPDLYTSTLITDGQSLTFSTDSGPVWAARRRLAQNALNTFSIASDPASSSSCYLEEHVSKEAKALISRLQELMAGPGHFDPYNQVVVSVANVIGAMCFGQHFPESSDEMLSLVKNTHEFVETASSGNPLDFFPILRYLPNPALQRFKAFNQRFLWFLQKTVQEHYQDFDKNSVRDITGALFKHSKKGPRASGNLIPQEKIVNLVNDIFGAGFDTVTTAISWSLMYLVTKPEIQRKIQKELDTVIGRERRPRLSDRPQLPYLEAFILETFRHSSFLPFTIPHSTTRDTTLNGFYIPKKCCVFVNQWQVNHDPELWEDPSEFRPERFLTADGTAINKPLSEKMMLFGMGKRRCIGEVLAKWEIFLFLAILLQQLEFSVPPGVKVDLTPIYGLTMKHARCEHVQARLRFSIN

H4 = experiment: Luminescence Cell-Based Dose Response HTS to Identify Activators of 5'UTR Stem-Loop Driven Prion Protein mRNA Translation in H4 Neuroglioblastoma Cells. [Related pubchem assays: 1829 (Project Summary), 1814 (Primary HTS)]; assay type: functional; details: Homo sapiens
[2] = NIH3T3 cell viability loss – ATP luminescence, mouse fibroblasts, counter-screen, dose response (AID 2010); assay type: functional, cell-based;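 further: cells exposed to compound for about 90 hours before reading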
[3] = Trypanosoma cruzi growth suppression in host cells – NIH3T3 host cells, beta-gal luminescence, confirmation (AID 2044); assay type: functional, cell-based;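 further: intracellular parasites grown in NIH/3T3 mouse fibroblasts as host cells; luminescent beta-galactosidase reporter signal from transgenic T. cruzi replicating inside host cells; inhibitors lower the luminescence signal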
[4] = Luminescence Cell-Based Dose Response HTS to Identify Activators of Luciferase Translation or Activity in H4 […] Cells. [Related pubchem assays: 1829 (Project Summary), 1814 (Primary HTS)]; assay type: functional
[5] = Luminescence Cell-Based Dose Confirmation HTS to Identify Activators of 5'UTR Stem-Loop Driven Alpha-Synuclein mRNA Translation in H4 Neuroglioblastoma Cells. [Related pubchem assays: 1829 (Project Summary), 1814 (Primary HTS)]; assay type: functional

Chain of Cytochrome P450 2C19 (P33261 whole entry): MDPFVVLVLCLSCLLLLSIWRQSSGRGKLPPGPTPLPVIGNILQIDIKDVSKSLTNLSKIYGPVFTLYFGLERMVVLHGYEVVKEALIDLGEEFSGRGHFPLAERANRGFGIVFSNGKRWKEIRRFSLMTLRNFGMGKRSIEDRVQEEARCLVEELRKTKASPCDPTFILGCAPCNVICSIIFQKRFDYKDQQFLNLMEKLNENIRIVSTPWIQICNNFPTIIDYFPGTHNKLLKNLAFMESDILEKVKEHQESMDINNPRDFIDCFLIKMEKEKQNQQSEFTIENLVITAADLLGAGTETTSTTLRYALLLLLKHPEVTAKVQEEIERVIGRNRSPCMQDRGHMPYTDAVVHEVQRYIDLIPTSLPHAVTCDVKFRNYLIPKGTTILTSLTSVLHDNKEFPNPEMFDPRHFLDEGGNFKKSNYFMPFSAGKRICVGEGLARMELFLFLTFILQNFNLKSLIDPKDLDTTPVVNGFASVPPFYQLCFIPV
Chain of Cytochrome P450 3A4 (P08684 whole entry): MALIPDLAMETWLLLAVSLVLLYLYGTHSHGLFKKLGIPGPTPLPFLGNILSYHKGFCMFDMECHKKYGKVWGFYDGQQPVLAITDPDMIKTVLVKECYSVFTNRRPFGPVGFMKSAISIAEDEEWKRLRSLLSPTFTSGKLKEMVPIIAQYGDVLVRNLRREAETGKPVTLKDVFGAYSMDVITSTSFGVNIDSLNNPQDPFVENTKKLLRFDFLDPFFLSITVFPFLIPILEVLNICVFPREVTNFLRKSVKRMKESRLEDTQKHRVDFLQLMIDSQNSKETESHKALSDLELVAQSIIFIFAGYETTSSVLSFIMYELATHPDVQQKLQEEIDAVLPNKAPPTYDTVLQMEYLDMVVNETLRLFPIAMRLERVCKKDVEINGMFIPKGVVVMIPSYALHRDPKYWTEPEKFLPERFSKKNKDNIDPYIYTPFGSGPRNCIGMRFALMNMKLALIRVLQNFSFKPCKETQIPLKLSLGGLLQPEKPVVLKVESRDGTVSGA
Chain of Cytochrome P450 2C9 (P11712 whole entry): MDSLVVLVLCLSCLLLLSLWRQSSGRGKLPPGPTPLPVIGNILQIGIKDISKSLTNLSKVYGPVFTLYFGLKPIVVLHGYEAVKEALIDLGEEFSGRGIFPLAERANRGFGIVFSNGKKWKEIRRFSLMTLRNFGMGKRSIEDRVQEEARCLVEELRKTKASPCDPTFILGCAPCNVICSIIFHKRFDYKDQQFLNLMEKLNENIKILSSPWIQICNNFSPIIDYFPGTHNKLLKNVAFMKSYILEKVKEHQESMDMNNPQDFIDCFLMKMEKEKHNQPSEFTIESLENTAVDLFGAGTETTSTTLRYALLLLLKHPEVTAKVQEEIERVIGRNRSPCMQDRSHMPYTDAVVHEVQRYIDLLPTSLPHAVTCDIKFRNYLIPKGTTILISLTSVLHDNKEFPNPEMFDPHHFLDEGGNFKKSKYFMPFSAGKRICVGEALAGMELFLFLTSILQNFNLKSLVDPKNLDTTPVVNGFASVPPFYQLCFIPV
Chain of Cytochrome P450 2D6 (P10635 whole entry): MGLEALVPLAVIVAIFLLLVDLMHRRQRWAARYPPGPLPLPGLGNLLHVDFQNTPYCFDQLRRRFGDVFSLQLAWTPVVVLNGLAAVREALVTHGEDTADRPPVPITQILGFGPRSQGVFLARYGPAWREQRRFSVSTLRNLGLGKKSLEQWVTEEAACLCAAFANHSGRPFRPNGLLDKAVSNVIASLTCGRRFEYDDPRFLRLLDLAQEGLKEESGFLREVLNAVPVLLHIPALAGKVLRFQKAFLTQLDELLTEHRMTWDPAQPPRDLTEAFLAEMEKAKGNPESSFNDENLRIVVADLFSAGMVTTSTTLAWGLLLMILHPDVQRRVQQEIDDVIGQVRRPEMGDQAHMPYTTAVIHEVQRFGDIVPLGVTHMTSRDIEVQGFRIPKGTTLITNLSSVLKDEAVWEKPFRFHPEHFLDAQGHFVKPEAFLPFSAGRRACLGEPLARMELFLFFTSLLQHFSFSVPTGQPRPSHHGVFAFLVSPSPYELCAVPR

COc1cccc2[nH]c(C(=O)NN)c(N)c12
IC50 [1]: 99.4 µM (active)

COc1ccccc1CNc1cc(-c2c(C)noc2C)ncn1
AC50 (Cytochrome P450 2D6): 25.1 µM (inconclusive) | AC50 (Cytochrome P450 2C19): 25.1 µM (inconclusive) | AC50 (Cytochrome P450 3A4): 39.8 µM (inconclusive)

COc1cc2c(cc1N)-c1ccc(N)cc1C2=O
IC50 [1]: 12.3 µM (active)

CC(C)NC(=O)CSc1nnc(C2CC2)n1-c1ccccc1
AC50 (Cytochrome P450 2C9): 31.6 µM (inconclusive) | AC50 (Cytochrome P450 3A4): 25.1 µM (inconclusive)

CC=C(/C(=C/C)c1ccc(O)cc1)c1ccc(O)cc1 [DIENESTROL]
AC50 (Cytochrome P450 1A2): 15.8 µM (inconclusive) | AC50 (Cytochrome P450 2D6): 15.8 µM (inconclusive)

CCc1nnc(SCc2ccc(OC(C)C)cc2)n1N
AC50 (Cytochrome P450 1A2): 15.8 µM (inconclusive) | AC50 (Cytochrome P450 2C9): 0.00562 µM (inconclusive) | AC50 (Cytochrome P450 3A4): 14.1 µM (inconclusive)

O=C(O)c1cc(N/N=C/c2c(O)ccc3ccccc23)ccc1Cl
IC50 [1]: 35.7 µM (active)

Cc1nc(SCC(=O)c2ccc(F)cc2)c([N+](=O)[O-])[nH]1
AC50 (Cytochrome P450 2C9): 20 µM (inconclusive)

CCN(CC)S(=O)(=O)c1ccc(C)c(NC(=O)CN2CCN(Cc3ccccc3)CC2)c1
IC50 [1]: 84.8 µM (active)

COc1ccc(N2CCN(c3nc(Nc4ccc(F)cc4)nc(OC)n3)CC2)cc1
AC50 (Cytochrome P450 1A2): 3.16 µM (inconclusive) | AC50 (Cytochrome P450 2C9): 3.55 µM (inconclusive) | AC50 (Cytochrome P450 3A4): 3.16 µM (inconclusive)

COC(=O)c1ccc(NC(=S)N2CCN(Cc3cccc(C)c3)CC2)cc1
AC50 (Cytochrome P450 2D6): 35.5 µM (inconclusive)

CCCCNc1ncnc2c1cnn2-c1ccccc1
EC50 (H4): 27.1 µM (active)

COCCn1c(C2CCCCC2)nc2sc3ccccc3c(=O)c2c1=O
EC50 [2]: > 60 µM (not active) | EC50 [3]: 2.28 µM (active)

Cc1sc2ncnc(N/N=C/c3ccc(O)cc3)c2c1C
IC50 [1]: 37.6 µM (active)

Cc1nn(-c2ccccc2)c(Cl)c1C(=O)Nc1c(C)n(C)n(-c2ccccc2)c1=O
AC50 (Cytochrome P450 1A2): 5.01 µM (inconclusive) | AC50 (Cytochrome P450 2C9): 20 µM (inconclusive)

Cn1c(=O)[nH]c(NCCc2ccc(O)cc2)c([N+](=O)[O-])c1=O
IC50 [1]: 219 µM (active)

CN(C)S(=O)(=O)c1ccc2c(c1)/C(=C/c1cc3c([nH]1)CCCC3)C(=O)N2
AC50 (Cytochrome P450 2D6): 31.6 µM (inconclusive) | AC50 (Cytochrome P450 2C9): 10 µM (inconclusive) | AC50 (Cytochrome P450 2C19): 7.94 µM (inconclusive)

COc1cc(/C=N\N=C2/SC(CC(=O)O)C(=O)N2c2ccc(O)cc2)ccc1O (stereo unspecified)
IC50 [1]: 78.1 µM (active)

CCOC(=O)c1[nH]c(C(=O)O)c(CCN(CC)CC)c1C
AC50 (Cytochrome P450 1A2): 39.8 µM (inconclusive) | AC50 (Cytochrome P450 2D6): 3.98 µM (inconclusive)

COc1ccc2c(c1OC)C(=O)N1c3ccccc3SC21 (stereo unspecified)
EC50 (H4): 0.179 µM (active) | EC50 [4]: 0.124 µM (active)

Cc1ccc(-c2nc3ncccc3o2)cc1NC(=O)c1ccc([N+](=O)[O-])o1
EC50 [5]: > 120 µM (not active) | EC50 (H4): > 120 µM (not active) | EC50 [4]: > 120 µM (not active)

N=C1c2ccccc2CN1NC(=O)c1ccc(F)cc1
AC50 (Cytochrome P450 2C9): 17.8 µM (inconclusive) | AC50 (Cytochrome P450 2C19): 28.2 µM (inconclusive)

C=CCNCC(O)COc1ccc(C(C)=O)cc1OC (stereo unspecified)
IC50 [1]: 131 µM (active)

COC(=O)C1=C(N)Oc2cc(C)n(CC3CCCO3)c(=O)c2C1c1ccccc1OC (stereo unspecified)
AC50 (Cytochrome P450 2C9): 28.2 µM (inconclusive) | AC50 (Cytochrome P450 2C19): 22.4 µM (inconclusive)

O=C(O)c1nnsc1-c1ccc(-c2snnc2C(=O)O)cc1
AC50 (Cytochrome P450 2C9): 7.94 µM (inconclusive)

c1ccc(NC2=Nc3ccccc3CC2)cc1
EC50 [5]: 10.9 µM (active) | EC50 (H4): > 120 µM (not active) | EC50 [4]: 21.1 µM (active)
